Assay results: patent US20240366589A1, “NHE3-BINDING COMPOUNDS AND METHODS FOR INHIBITING PHOSPHATE TRANSPORT” (Ardelyx, Inc., priority 2013, published 2024)

Experiments:
[1] = target: T1, Rat NHE3 (Rattus norvegicus, UniProt P26433); assay: Cell-based NHE3 activity under prompt conditions (OK cells, BCECF pH recovery), rat NHE3; details: prompt conditions
T1 construct: expressed in transfected cells; host or cells: Opossum kidney (OK) cells (ATCC), electroporation
In short: (§1)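 Read-out: initial rate of BCECF-reported intracellular pH recovery via Na+/H+ antiport, fitted to pIC50. Opossum kidney cells transfected with rat or human NHE3; NH4Cl prepulse with 5 μM BCECF-AM, 30 min RT; Na+-free choline buffer 10 min.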

[2] = system: absorption of sodium from the intestinal lumen; assay: Inhibition of intestinal sodium absorption: urinary sodium (uNa) 16 h after single oral dose in rats; type: in vivo, rat; details: oral gavage, 16 h post-dose
In short: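 Urinary sodium mass over the 16 h after one oral gavage dose, measured by cation-exchange ion chromatography, reported as percent of water-vehicle group; ANOVA plus Dunnett's post hoc test. Groups of six 8-week-old Sprague-Dawley rats, housed individually in metabolic cages post-dose, fed and watered freely.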

[3] = target: T2, Human NHE3 (Homo sapiens, UniProt P48764); assay: Cell-based NHE3 activity under prompt conditions (OK cells, BCECF pH recovery), human NHE3; details: prompt conditions
T2 construct: expressed in transfected cells; host or cells: Opossum kidney (OK) cells (ATCC), electroporation
T2 sequence (P48764 26-834): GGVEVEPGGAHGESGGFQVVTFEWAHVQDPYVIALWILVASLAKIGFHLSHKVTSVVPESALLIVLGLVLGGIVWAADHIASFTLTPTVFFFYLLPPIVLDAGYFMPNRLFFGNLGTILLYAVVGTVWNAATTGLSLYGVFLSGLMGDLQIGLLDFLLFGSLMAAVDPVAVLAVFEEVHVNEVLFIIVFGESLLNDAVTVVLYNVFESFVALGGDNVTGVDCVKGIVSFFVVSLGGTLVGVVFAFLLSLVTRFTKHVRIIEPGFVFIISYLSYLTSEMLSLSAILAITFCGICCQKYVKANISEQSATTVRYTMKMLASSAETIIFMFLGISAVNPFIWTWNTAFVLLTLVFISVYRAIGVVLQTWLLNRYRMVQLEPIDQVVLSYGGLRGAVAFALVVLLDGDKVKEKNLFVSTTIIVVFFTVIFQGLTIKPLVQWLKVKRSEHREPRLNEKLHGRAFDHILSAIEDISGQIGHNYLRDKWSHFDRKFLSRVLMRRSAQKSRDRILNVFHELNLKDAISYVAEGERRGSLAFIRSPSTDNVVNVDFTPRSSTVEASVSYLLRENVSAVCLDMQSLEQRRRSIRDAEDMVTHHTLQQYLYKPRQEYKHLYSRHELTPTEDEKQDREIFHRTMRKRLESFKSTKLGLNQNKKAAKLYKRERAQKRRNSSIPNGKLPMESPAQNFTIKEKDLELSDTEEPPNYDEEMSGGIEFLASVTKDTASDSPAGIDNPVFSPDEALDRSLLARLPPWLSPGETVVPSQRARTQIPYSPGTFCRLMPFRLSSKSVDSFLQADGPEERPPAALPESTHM
In short: as §1

[4] = system: phosphorus and calcium levels in the urine of rats; assay: Urinary excretion of phosphate and calcium in rats (16 h overnight urine); type: in vivo, rat; details: rats, oral gavage, 16 h post-dose
[5] = system: absorption of sodium from the intestinal lumen; assay: Fecal form score (FFS) 16 h after oral dose in rats; type: in vivo, rat; details: oral gavage, 16 h post-dose, scale 1-5
In short: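 Fecal form was scored at 16 h post-dose on a 1–5 wetness scale (normal pellet to liquid stream), with two independent observations averaged across six rats per group. Animals were 8-week-old Sprague-Dawley rats given test compound or water orally in the late afternoon and kept in metabolic cages.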

T1 sequence (P26433 29-831): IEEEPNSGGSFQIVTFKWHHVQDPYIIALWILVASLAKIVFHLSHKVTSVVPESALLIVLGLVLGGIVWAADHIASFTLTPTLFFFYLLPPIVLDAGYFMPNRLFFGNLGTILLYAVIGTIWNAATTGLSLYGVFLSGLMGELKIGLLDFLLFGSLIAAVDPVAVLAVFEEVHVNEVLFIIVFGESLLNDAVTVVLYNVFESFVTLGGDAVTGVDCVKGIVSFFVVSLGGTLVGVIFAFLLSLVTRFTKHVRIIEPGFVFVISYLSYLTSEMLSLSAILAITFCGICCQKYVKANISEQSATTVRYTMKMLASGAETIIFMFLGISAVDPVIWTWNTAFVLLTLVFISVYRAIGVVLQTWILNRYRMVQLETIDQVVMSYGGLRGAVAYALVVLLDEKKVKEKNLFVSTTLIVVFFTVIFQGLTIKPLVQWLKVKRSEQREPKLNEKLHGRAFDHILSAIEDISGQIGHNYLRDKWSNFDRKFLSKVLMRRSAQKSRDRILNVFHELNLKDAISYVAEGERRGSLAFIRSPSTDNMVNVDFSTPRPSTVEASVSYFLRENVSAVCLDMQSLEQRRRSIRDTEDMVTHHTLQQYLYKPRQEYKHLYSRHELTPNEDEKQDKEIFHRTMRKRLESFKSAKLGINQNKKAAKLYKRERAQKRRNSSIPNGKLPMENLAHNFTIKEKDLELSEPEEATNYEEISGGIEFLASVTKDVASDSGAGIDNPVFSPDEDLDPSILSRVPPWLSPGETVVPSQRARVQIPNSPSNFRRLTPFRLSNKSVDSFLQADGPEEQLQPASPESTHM

SMILES | Prompt Rat NHE3 pIC50 [1] | Urine Na % of control ([2]; dose 3 mg/kg) [%] | Prompt Human NHE3 pIC50 [3] | Urine P % of control ([4]; dose 3 mg/kg) [%] | Fecal Form Score average ([5]; dose 3 mg/kg) | Urine Na % of control ([2]; dose 1 mg/kg) [%] | Urine Na % of control ([2]; dose 10 mg/kg) [%] | Urine P % of control ([4]; dose 1 mg/kg) [%] | Urine P % of control ([4]; dose 10 mg/kg) [%] | Fecal Form Score average ([5]; dose 1 mg/kg) | Fecal Form Score average ([5]; dose 10 mg/kg)
CCN(CCOCCOCCNC(=O)NCCCN(CCCNC(=O)NCCOCCOCCN(CC)S(=O)(=O)c1cccc([C@@H]2CN(C)Cc3c(Cl)cc(Cl)cc32)c1)CCCNC(=O)NCCOCCOCCN(CC)S(=O)(=O)c1cccc([C@@H]2CN(C)Cc3c(Cl)cc(Cl)cc32)c1)S(=O)(=O)c1cccc([C@@H]2CN(C)Cc3c(Cl)cc(Cl)cc32)c1 [compound 132] | 6.00 | 65 | 7.70 | 88 | 1 | – | – | – | – | – | –
CN1Cc2c(Cl)cc(Cl)cc2[C@H](c2cccc(S(=O)(=O)NCCOCCOCCNC(=O)CCC(CCC(=O)NCCOCCOCCNS(=O)(=O)c3cccc([C@@H]4CN(C)Cc5c(Cl)cc(Cl)cc54)c3)(CCC(=O)NCCOCCOCCNS(=O)(=O)c3cccc([C@@H]4CN(C)Cc5c(Cl)cc(Cl)cc54)c3)NC(N)=O)c2)C1 [compound 133] | 6.50 | 23 | 7.30 | 67 | 2 | – | – | – | – | – | –
CN1Cc2c(Cl)cc(Cl)cc2[C@H](c2cccc(S(=O)(=O)N(C)CCOCCOCCNC(=O)CCN(CCC(=O)NCCOCCOCCN(C)S(=O)(=O)c3cccc([C@@H]4CN(C)Cc5c(Cl)cc(Cl)cc54)c3)CCC(=O)NCCOCCOCCN(C)S(=O)(=O)c3cccc([C@@H]4CN(C)Cc5c(Cl)cc(Cl)cc54)c3)c2)C1 [compound 134] | 6.50 | 64 | 6.50 | 72 | 1 | – | – | – | – | – | –
N[C@@H]1CCCN([C@H]2Cc3c(Cl)cc(Cl)cc3[C@@H]2Oc2ccc(S(=O)(=O)NCCOCCOCCNC(=O)NCCCCNC(=O)NCCOCCOCCNS(=O)(=O)c3ccc(O[C@H]4c5cc(Cl)cc(Cl)c5C[C@@H]4N4CCC[C@@H](N)C4)cc3)cc2)C1 [compound 135] | 7.40 | 94 | 8.45 | 44 | 1 | 100 | 58 | 92 | 85 | 1 | 2
CN(C)[C@H]1Cc2ccc(F)cc2[C@@H]1Oc1ccc(S(=O)(=O)NCCOCCOCCNC(=O)NCCCCNC(=O)NCCOCCOCCNS(=O)(=O)c2ccc(O[C@H]3c4cc(F)ccc4C[C@@H]3N(C)C)cc2)cc1 [compound 136] | <5.00 | – | 7.70 | – | – | – | 104 | – | 93 | – | 1
CN1Cc2c(Cl)cc(Cl)cc2[C@H](c2cccc(S(=O)(=O)NCCOCCOCCNC(=O)CCC(CCC(=O)NCCOCCOCCNS(=O)(=O)c3cccc([C@@H]4CN(C)Cc5c(Cl)cc(Cl)cc54)c3)(CCC(=O)NCCOCCOCCNS(=O)(=O)c3cccc([C@@H]4CN(C)Cc5c(Cl)cc(Cl)cc54)c3)NC(=O)CCCC(=O)O)c2)C1 [compound 137] | 7.30 | 28 | 7.30 | 139 | 3 | 39 | – | 137 | – | 1 | –
CN(CC(=O)O)CC(=O)NC(CCC(=O)NCCOCCOCCNS(=O)(=O)c1cccc([C@@H]2CN(C)Cc3c(Cl)cc(Cl)cc32)c1)(CCC(=O)NCCOCCOCCNS(=O)(=O)c1cccc([C@@H]2CN(C)Cc3c(Cl)cc(Cl)cc32)c1)CCC(=O)NCCOCCOCCNS(=O)(=O)c1cccc([C@@H]2CN(C)Cc3c(Cl)cc(Cl)cc32)c1 [compound 138] | 7.30 | 37 | 7.30 | 78 | 2 | – | – | – | – | – | –
CN1Cc2c(Cl)cc(Cl)cc2[C@H](c2cccc(S(=O)(=O)NCCOCCOCCNC(=O)CCC(CCC(=O)NCCOCCOCCNS(=O)(=O)c3cccc([C@@H]4CN(C)Cc5c(Cl)cc(Cl)cc54)c3)(CCC(=O)NCCOCCOCCNS(=O)(=O)c3cccc([C@@H]4CN(C)Cc5c(Cl)cc(Cl)cc54)c3)NC(=O)COCC(=O)O)c2)C1 [compound 139] | 7.60 | 27 | 7.80 | 45 | 3 | 80 | – | 63 | – | 1 | –
O=C(NCCCCNC(=O)NCCOCCOCCNS(=O)(=O)c1ccc(O[C@H]2c3cc(F)ccc3C[C@@H]2N2CCCCC2)cc1)NCCOCCOCCNS(=O)(=O)c1ccc(O[C@H]2c3cc(F)ccc3C[C@@H]2N2CCCCC2)cc1 [compound 140] | 8.90 | – | 7.70 | – | – | – | 110 | – | 121 | – | 1
CN1Cc2c(Cl)cc(Cl)cc2[C@H](c2cccc(S(=O)(=O)NCCOCCOCCNC(=O)CCC(CCC(=O)NCCOCCOCCNS(=O)(=O)c3cccc([C@@H]4CN(C)Cc5c(Cl)cc(Cl)cc54)c3)(CCC(=O)NCCOCCOCCNS(=O)(=O)c3cccc([C@@H]4CN(C)Cc5c(Cl)cc(Cl)cc54)c3)NC(=O)N(C)C[C@H](O)[C@@H](O)[C@H](O)[C@H](O)CO)c2)C1 [compound 142] | 8.10 | 45 | 7.10 | 38 | 2 | – | – | – | – | – | –
CN1Cc2c(Cl)cc(Cl)cc2[C@H](c2cccc(S(=O)(=O)NCCOCCOCCNC(=O)CCC(CCC(=O)NCCOCCOCCNS(=O)(=O)c3cccc([C@@H]4CN(C)Cc5c(Cl)cc(Cl)cc54)c3)(CCC(=O)NCCOCCOCCNS(=O)(=O)c3cccc([C@@H]4CN(C)Cc5c(Cl)cc(Cl)cc54)c3)NC(=O)NC[C@H](O)[C@@H](O)[C@H](O)[C@H](O)CO)c2)C1 [compound 143] | 7.25 | 34 | 7.27 | 93 | 3 | 68 | – | 73 | – | 1 | –
CN1Cc2c(Cl)cc(Cl)cc2[C@H](c2cccc(S(=O)(=O)NCCOCCOCCNC(=O)CCC(CCC(=O)NCCOCCOCCNS(=O)(=O)c3cccc([C@@H]4CN(C)Cc5c(Cl)cc(Cl)cc54)c3)(CCC(=O)NCCOCCOCCNS(=O)(=O)c3cccc([C@@H]4CN(C)Cc5c(Cl)cc(Cl)cc54)c3)NC(=O)NCCN3CCOCC3)c2)C1 [compound 144] | 7.20 | 32 | 7.77 | 47 | 2 | – | – | – | – | – | –
